Entries after “also recorded” stand apart in the source; their conditions may differ. No end group written: not given here.
Experiments:
Type in all cases: cell-based
[1] = system: Sclerotinia sclerotiorum
[2] = system: Sclerotinia trifoliorum
[3] = system: Alternaria longipes
[4] = system: Fusarium graminearum
[5] = system: plant pathogenic fungi
[6] = system: Fusarium moniliforme
[7] = system: Aspergillus flavus

RSGRGECRRQCLRRHEGQPWETQECMRRCRRRGG (cysteine pairing not given here) [CMIII]
concentrations at which inhibition of S. sclerotiorum was not observed [1]: below 30.4 micromolar | inhibition of Sclerotinia isolates (S. sclerotiorum) [1]: inhibited strongly | inhibition of Sclerotinia sclerotiorum [1]: inhibitory activity | concentrations at which inhibition of S. trifoliorum was not observed [2]: below 15.2 micromolar | inhibition of Sclerotinia isolates (S. trifoliorum) [2]: inhibited strongly | inhibition of Sclerotinia trifoliorum [2]: inhibitory activity | effect on A. longipes ([3]; at 3 μM, yet another study): not affected | concentration showing noticeable inhibition of Alternaria longipes ([3]; other studies, most sensitive of the fungi): 1.9 µM | inhibition of Fusarium graminearum ([4]; at a concentration of 112 μg/mL): inhibitory activity | concentration down to which Fusarium graminearum was noticeably inhibited ([4]; other studies): 3.8 µM | CMIII activity in the presence of plant cell extracts [5]: reduced substantially | concentration down to which Fusarium moniliforme was noticeably inhibited [6]: 3.8 µM | inhibition of Fusarium moniliforme [6]: slightly inhibited; also recorded: not completely inhibited | inhibition of Aspergillus flavus [7]: slightly inhibited; also recorded: slight inhibition
